Source: US9347077B2, “Over-expression of a putative oxidoreductase (UcpA) for increasing furfural or 5-hydroxymethylfurfural tolerance” (UNIVERSITY OF FLORIDA RESEARCH FOUNDATION, INCORPORATED, priority 2011, dated 2016)
≈ marks a conversion by molar mass, not a printed value.

Tests used:
[1] = molecular target: T1, UcpA (Escherichia coli, UniProt P37440, T153Q); type: biochemical; settings: lysates of induced LY180 (pLOI4856) vs empty vector control, appropriate cofactors
T1 construct: made in house; host or cells: E. coli LY180 (pLOI4856), IPTG-induced; clarified cell lysate, not purified
T1 sequence (P37440 whole entry T153Q): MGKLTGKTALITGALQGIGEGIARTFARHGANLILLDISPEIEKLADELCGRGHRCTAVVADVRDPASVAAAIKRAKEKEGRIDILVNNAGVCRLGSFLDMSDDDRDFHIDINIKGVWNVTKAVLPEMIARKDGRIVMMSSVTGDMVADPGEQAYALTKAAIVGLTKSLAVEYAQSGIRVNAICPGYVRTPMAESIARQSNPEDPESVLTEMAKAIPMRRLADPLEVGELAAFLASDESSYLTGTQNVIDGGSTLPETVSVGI
Experimental: Cultures were grown overnight to a cell density of approximately 0.66 mg dcw ml^−1 (37° C.) in closed tubes containing 20 ml AM1 (50 g liter^−1 xylose, 0.1 mM IPTG and 12.5 mg liter^−1 ampicillin). Cells were harvested by centrifugation (7,000 g for 5 min, 4° C.), washed twice with 10 ml of cold sodium phosphate buffer (50 mM pH 7.0), resuspended to a cell density of 4.4 mg dcw ml^−1, and disrupted in buffer containing 1 mM dithiothreitol using a Fastprep-24 (MP Biomedicals, Solon, Ohio). After clarification at 13,000 g (10 min, 4° C.), protein concentration was determined using a BCA™ Protein Assay Kit (Thermo Scientific, Rockford, Ill.). Furfural-dependent reduction was measured using NADH and NADPH by monitoring the decrease in absorbance at 340 nm (extinction coefficient of NADH of 6,220 M^−1 cm^−1; extinction coefficient of NADPH of […]). Reaction mixtures contained 200 mM phosphate buffer (pH 7.0), 10 mM furfural, and 0.2 mM NADH or NADPH. NADH-dependent and NADPH-dependent reduction of 5-HMF (10 mM) was measured in a similar fashion.
Additional compounds (ethanol, glycerol, n-butanol, 2-propanol, methanol, acetoin, diacetyl, methyglyoxal, dihydroxyacetone, acetaldehyde, and 1,3-propandiol) were tested as potential substrates for UcpA using appropriate cofactors.

[2] = system: LY180(pTrc99A); test: Furfural toxicity / MIC in tube cultures, vector control; type: cell-based, Escherichia coli
Experimental: (§1) Furfural toxicity was measured in tube cultures (13 mm by 100 mm) containing 4 ml of AM1 medium with 50 g liter^−1 xylose, 12.5 mg liter^−1 ampicillin, furfural, and other supplements as indicated (Miller et al., 2009a, b). Cultures were inoculated to an initial density of 22 mg dcw liter^−1. IPTG (0.1 mM) was included for fucO induction. Cell mass was measured at 550 nm after incubation for 48 h (37° C.). For cysteine supplement experiment, the culture condition was the same but included 0.1 mM cysteine as an amendment.
(§2) Derivatives of LY180 containing these plasmids were tested for furfural tolerance with (0.1 mM IPTG) and without IPTG induction using an MIC assay (Miller et al., 2009a; Miller et al., 2010; Wang et al., 2011b).

[3] = system: LY180 (pLOI4856); test: Furfural toxicity / MIC in tube cultures, ucpA plasmid; type: cell-based, Escherichia coli
Experimental: as §1, §2

[4] = molecular target: YqhD (Escherichia coli, UniProt Q46856); settings: read-out: Km for NADPH; cited from earlier work
YqhD, sequence (Q46856 whole entry): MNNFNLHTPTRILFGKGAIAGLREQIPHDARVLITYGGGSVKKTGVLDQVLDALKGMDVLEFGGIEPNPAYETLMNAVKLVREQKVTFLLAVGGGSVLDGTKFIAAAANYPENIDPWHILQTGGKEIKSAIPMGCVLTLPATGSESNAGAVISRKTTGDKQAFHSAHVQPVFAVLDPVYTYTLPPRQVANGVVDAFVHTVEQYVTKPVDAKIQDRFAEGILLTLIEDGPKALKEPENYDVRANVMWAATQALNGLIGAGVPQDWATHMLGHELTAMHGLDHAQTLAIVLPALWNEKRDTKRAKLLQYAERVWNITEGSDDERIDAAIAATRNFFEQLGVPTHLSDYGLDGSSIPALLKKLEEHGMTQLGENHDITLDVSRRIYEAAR

[5] = Escherichia coli, read-out: MIC for 5-HMF

Row | Compound | Metabolism as substrate for UcpA [1] | also measured
1 | CC(C)O [2-propanol] | none appeared to be metabolized | 
2 | CC(=O)C(C)=O [diacetyl] | none appeared to be metabolized | 
3 | CC=O [acetaldehyde] | none appeared to be metabolized | 
4 | OCCCO [1,3-propandiol] | none appeared to be metabolized | 
5 | CC(=O)C(C)O (stereo not drawn) [acetoin] | none appeared to be metabolized | 
6 | methyglyoxal | none appeared to be metabolized | 
7 | CCCCO [n-butanol] | none appeared to be metabolized | 
8 | OCC(O)CO [glycerol] | none appeared to be metabolized | 
9 | CCO [ethanol] | none appeared to be metabolized | 
10 | N[C@@H](CS)C(=O)O [L-cysteine, reference compound] |  | Effect of L-cysteine supplement on growth in the presence of furfural ([2]; 0.1 mM L-cysteine, 10 mM furfural): cell growth was increased; Effect of L-cysteine supplement on growth in the presence of furfural ([3]; 0.1 mM L-cysteine, 10 mM furfural, ucpA induced): did not alter the growth
11 | CO [methanol] | none appeared to be metabolized | 
12 | NADPH |  | Km [4]: 8 µM
13 | O=Cc1ccc(CO)o1 [5-HMF, 5-hydroxymethylfurfural] |  | MIC [2, 5]: 16 mM (≈ 2020 µg/mL); MIC [3, 5]: 20 mM (≈ 2520 µg/mL)
